According to patent US6653300B2, “Pyrazole compounds useful as protein kinase inhibitors” (Vertex Pharmaceuticals Incorporated, priority 2000, dated 2003):

Legend:
GSK-3β (AA 1-420) = target: T1, GSK-3β (AA 1-420) (Homo sapiens, UniProt P49841); assay: Ki determination for the inhibition of GSK-3 (coupled enzyme system); assay type: biochemical; settings: 20 μM ATP, 20 nM GSK-3β, 30° C.
T1 construct: GSK-3β (AA 1-420)
Method: Compounds were screened for their ability to inhibit GSK-3β (AA 1-420) activity using a standard coupled enzyme system (Fox et al. (1998) Protein Sci. 7, 2249). Reactions were carried out in a solution containing 100 mM HEPES (pH 7.5), 10 mM MgCl2, 25 mM NaCl, 300 μM NADH, 1 mM DTT and 1.5% DMSO. Final substrate concentrations in the assay were 20 μM ATP (Sigma Chemicals, St Louis, Mo.) and 300 μM peptide (HSSPHQS (PO3H2) EDEEE, American Peptide, Sunnyvale, Calif.). Reactions were carried out at 30° C. and 20 nM GSK-3β. Final concentrations of the components of the coupled enzyme system were 2.5 mM phosphoenolpyruvate, 300 μM NADH, 30 μg/ml pyruvate kinase and 10 μg/ml lactate dehydrogenase.
An assay stock buffer solution was prepared containing all of the reagents listed above with the exception of ATP and the test compound of interest. The assay stock buffer solution (175 μl) was incubated in a 96 well plate with 5 μl of the test compound of interest at final concentrations spanning 0.002 μM to 30 μM at 30° C. for 10 min. […] The reaction was initiated by the addition of 20 μl of ATP (final concentration 20 μM). Rates of reaction were obtained using a Molecular Devices Spectramax plate reader (Sunnyvale, Calif.) over 10 min at 30° C. The Ki values were determined from the rate data as a function of inhibitor concentration.

T1 sequence (P49841 whole entry, the tested form may be a part): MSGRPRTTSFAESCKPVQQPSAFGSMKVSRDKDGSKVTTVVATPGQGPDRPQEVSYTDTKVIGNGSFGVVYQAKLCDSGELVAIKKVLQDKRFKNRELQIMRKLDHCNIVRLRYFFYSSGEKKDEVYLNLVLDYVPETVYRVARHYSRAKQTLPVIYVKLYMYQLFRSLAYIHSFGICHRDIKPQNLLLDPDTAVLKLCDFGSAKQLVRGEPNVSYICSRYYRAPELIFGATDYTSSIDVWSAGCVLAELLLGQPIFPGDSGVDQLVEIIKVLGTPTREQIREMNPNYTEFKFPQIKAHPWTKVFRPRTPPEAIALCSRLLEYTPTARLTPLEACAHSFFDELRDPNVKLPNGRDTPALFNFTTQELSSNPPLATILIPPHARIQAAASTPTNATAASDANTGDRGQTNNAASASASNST

| melting point [°C] | Ki (GSK-3β (AA 1-420)) [nM] | Compound |
| --- | --- | --- |
| 255 to 257 | < 100 | Cc1cc(Nc2cc(-c3ccccc3)nc(Sc3ccc(NS(=O)(=O)C(C)C)cc3)n2)n[nH]1 [IIIa-24, [2-(4-Isopropanesulfonylamino-phenyl-sulfanyl)-6-phenyl-pyrimidin-4-yl]-(5-methyl-2H-pyrazol-3-yl)-amine] |
| 248 to 250 | < 100 | c1ccc2cc(Sc3nccc(Nc4cc(C5CC5)[nH]n4)n3)ccc2c1 [IIIa-3, (5-Cyclopropyl-2H-pyrazol-3-yl)-[2-(naphthalen-2-ylsulfanyl)-pyrimidin-4-yl]-amine] |
| 253 to 255 | 1000 to 7000 | Cc1cc(Nc2cc(-c3ccccc3)nc(Sc3ccc(NC(=O)C4CC4)cc3)n2)n[nH]1 [IIIa-16, [2-(4-Cyclopropanecarbonylamino-phenylsulfanyl)-6-phenylpyrimidin-4-yl]-(5-methyl-2H-pyrazol-3-yl)-amine] |
| 118 to 120 | 100 to 1000 | c1ccc2cc(Sc3nc(Nc4cc(C5CC5)[nH]n4)cc(N4CCOCC4)n3)ccc2c1 [IIIa-7, (5-Cyclopropyl-2H-pyrazol-3-yl)-[6-(morpholin-4-yl)-2-(naphthalen-2-ylsulfanyl)-pyrimidin-4-yl]-amine] |
| 232 | < 100 | Cc1cc(Nc2cc(C3CC3)[nH]n2)nc(Sc2ccc3ccccc3c2)n1 [IIIa-6, (5-Cyclopropyl-2H-pyrazol-3-yl)-[6-methyl-2-(naphthalen-2-ylsulfanyl)-pyrimidin-4-yl]-amine] |
| 251 to 254 | < 100 | CCS(=O)(=O)Nc1ccc(Sc2nc(Nc3cc(C)[nH]n3)cc(-c3ccccc3)n2)cc1 [IIIa-18, [2-(4-Ethanesulfonylamino-phenylsulfanyl)-6-phenyl-pyrimidin-4-yl]-(5-methyl-2H-pyrazol-3-yl)-amine] |
| 197 | 100 to 1000 | Cc1cnc(Sc2ccc3ccccc3c2)nc1Nc1cc(C2CC2)[nH]n1 [IIIa-5, (5-Cyclopropyl-2H-pyrazol-3-yl)-[5-methyl-2-(naphthalen-2-ylsulfanyl)-pyrimidin-4-yl]-amine] |
| 227 to 230 | 100 to 1000 | CC(=O)Nc1ccc(Sc2nc(Nc3cc(C)[nH]n3)cc(-c3cccc(NC(C)=O)c3)n2)cc1 [IIIa-23, [6-(3-Acetamidophenyl)-2-(4-acetamido-phenyl-sulfanyl)-pyrimidin-4-yl]-(5-methyl-2H-pyrazol-3-yl)-amine] |
| 126 to 129 | < 100 | COC(=O)c1cccc(Sc2nc(Nc3cc(C4CC4)[nH]n3)cc(-c3ccccc3)n2)c1 [IIIa-2, (5-Cyclopropyl-2H-pyrazol-3-yl)-[2-(3-methoxycarbonyl-phenylylsulfanyl)-6-phenylpyrimidin-4-yl]-amine] |
| 293 to 298 | 1000 to 7000 | Cc1cc(Nc2nc(Nc3ccc4oc(=O)c5ccccc5c4c3)nc3ccccc23)n[nH]1 [IIc-62] |
| 113 to 115 | 100 to 1000 | CN1CCN(c2cc(Nc3cc(C4CC4)[nH]n3)nc(Sc3ccc4ccccc4c3)n2)CC1 [IIIa-8, (5-Cyclopropyl-2H-pyrazol-3-yl)-[6-(1-methylpiperazin-4-yl)-2-(naphthalen-2-ylsulfanyl)-pyrimidin-4-yl]-amine] |
| 101 to 102 | < 100 | COCCNc1cc(Nc2cc(C)[nH]n2)nc(SCc2cccc(Cl)c2)n1 [IIIa-27, [2-(3-Chloro-benzylsulfanyl)-6-(2-methoxy-ethylamino)-pyrimidin-4-yl]-(5-methyl-2H-pyrazol-3-yl)-amine] |
| 241 to 245 | 100 to 1000 | COc1ccc(-c2cc(Nc3cc(C)[nH]n3)nc(Sc3ccc(NC(C)=O)cc3)n2)cc1 [IIIa-22, [2-(4-Acetamido-phenyl-sulfanyl)-6-(4-methoxyphenyl)-pyrimidin-4-yl]-(5-methyl-2H-pyrazol-3-yl)-amine] |
| 192 to 196 | – | Cc1cc(Nc2nc(Sc3nc4ccccc4[nH]3)nc3ccccc23)n[nH]1 [IIa-19, [2-(Benzimidazol-2-ylsulfanyl)-quinazolin-4-yl]-(5-methyl-2H-pyrazol-3-yl)-amine] |
| 211 to 214 | 100 to 1000 | Cc1cc(Nc2cc(-c3ccccc3C)nc(Sc3ccc4ccccc4c3)n2)n[nH]1 [IIIa-10, [6-(2-Methylphenyl)-2-(naphthalen-2-ylsulfanyl)-pyrimidin-4-yl]-(5-methyl-2H-pyrazol-3-yl)-amine] |
| 204 to 205 | – | COCc1cc(Nc2cc(C)[nH]n2)nc(Sc2ccc(C(=O)OC)cc2)n1 [IIIa-39, [2-(4-Methoxycarbonyl-phenyl-sulfanyl)-6-methoxymethyl-pyrimidin-4-yl]-(5-methyl-2H-pyrazol-3-yl)-amine] |
| 191 to 193 | – | c1ccc(-c2cc(Nc3cc(C4CC4)[nH]n3)nc(NCc3cccnc3)n2)cc1 [IIIc-5, (5-Cyclopropyl-2H-pyrazol-3-yl)-[6-phenyl-2-(pyridin-3-ylmethylamino)-pyrimidin-4-yl]-amine] |
| 271 to 273 | – | c1ccc2c(Sc3nc(Nc4cc(C5CC5)n[nH]4)c4ccccc4n3)cccc2c1 [IIa-37, (5-Cyclopropyl-2H-pyrazol-3-yl)-[2-(naphthalen-1-ylsulfanyl)-quinazolin-4-yl]-amine] |
| 241 to 243 | – | Cc1cc(Nc2cc(-c3ccccc3)nc(Sc3ccc(NC(=O)CC(C)C)cc3)n2)n[nH]1 [IIIa-20, [2-(4-Isobutanecarbonylamino-phenyl-sulfanyl)-6-phenyl-pyrimidin-4-yl]-(5-methyl-2H-pyrazol-3-yl)-amine] |
| 148 to 152 | – | Cc1cc(Nc2cc(-c3c(C)cccc3C)nc(Sc3ccc4ccccc4c3)n2)n[nH]1 [IIIa-9, [6-(2,6-Dimethylphenyl)-2-(naphthalen-2-ylsulfanyl)-pyrimidin-4-yl]-(5-methyl-2H-pyrazol-3-yl)-amine] |
| 257 to 259 | – | CC(=O)Nc1ccc(Sc2nc(Nc3cc(C)n[nH]3)c3cccc(F)c3n2)cc1 [IIa-78, [2-(4-Acetamidophenylsulfanyl)-8-fluoro-quinazolin-4-yl]-(5-methyl-2H-pyrazol-3-yl)-amine] |
| 208 to 209 | 100 to 1000 | CCC(=O)Nc1ccc(Sc2nc(Nc3cc(C4CC4)[nH]n3)cc(-c3ccccc3)n2)cc1 [IIIa-33, (5-Cyclopropyl-2H-pyrazol-3-yl)-[6-phenyl-2-(4-propionylamino-phenyl-sulfanyl)-pyrimidin-4-yl]-amine] |
| 237 to 239 | – | Cc1cc(Nc2cc(-c3ccccc3)nc(Sc3ccc4ccccc4c3)n2)n[nH]1 [IIIa-12, (5-Methyl-2H-pyrazol-3-yl)-[2-(naphthalen-2-ylsulfanyl)-6-phenyl-pyrimidin-4-yl]-amine] |
| > 270 | 100 to 1000 | Cc1nc(Sc2ccc3ccccc3c2)nc(Nc2cc(C3CC3)[nH]n2)c1C [IIIa-4, (5-Cyclopropyl-2H-pyrazol-3-yl)-[5,6-dimethyl-2-(naphthalen-2-ylsulfanyl)-pyrimidin-4-yl]-amine] |

| Compound | melting point [°C] | Ki (GSK-3β (AA 1-420)) [nM] |
| --- | --- | --- |
| CCCS(=O)(=O)Nc1ccc(Sc2nc(Nc3cc(C)n[nH]3)cc(-c3ccccc3)n2)cc1 [IIIa-17, (5-Methyl-2H-pyrazol-3-yl)-{6-phenyl-2-[4-(propane-1-sulfonylamino)-phenylsulfanyl]-pyrimidin-4-yl}-amine] | 232 to 235 | < 100 |
